Some test systems named below: A498 renal; HCT-116 colon; HL-60(TB) leukemia; MALME-3M melanoma; MDA-MB-435; OVCAR-3 ovarian; OVCAR-8 ovarian; UACC-62 melanoma; NCI-H522 lung; OVCAR-4 ovarian.
What all share (assay): NCI-60 cell line screen, 48 h

Several values for one entry are separate records, joined by “and”; a condition that tells them apart may be missing. Identical values can stand only once.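 Dose response: 5 concentrations. Exposure: 48 h. Format: 96-well plates. Endpoint: linear interpolation; highest concentration if not reached. At the GI50, growth is halved. TGI is the concentration that stops growth completely.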

Consider `CN1C2CC(C#N)C1C=CC2=O` (stereo not drawn), for which the GI50 in the test on A498 renal is 17.5 µM and > 100 µM; with HCT-116 colon, 13.4 µM and 43.8 µM; in the test on MALME-3M melanoma, 14.8 µM and 96.6 µM; in the test on MDA-MB-435, 16.9 µM and 89.2 µM; in the test on OVCAR-3 ovarian it was 15.5 µM and > 100 µM; in the test with OVCAR-8 ovarian, 24.5 µM and > 100 µM. Moreover, the GI50 with UACC-62 melanoma is 27.7 µM and 63.2 µM. Also, the TGI is 35 µM and > 100 µM with A498 renal; 27.2 µM and > 100 µM in the test with HCT-116 colon; 53.4 µM and > 100 µM in the test with HL-60(TB) leukemia; 31.4 µM and > 100 µM in the test on MALME-3M melanoma; 36.7 µM and > 100 µM with MDA-MB-435; 30.7 µM and > 100 µM with OVCAR-3 ovarian. Besides, the TGI in the test on OVCAR-8 ovarian is 70.9 µM and > 100 µM; in the test on UACC-62 melanoma it was greater than 100 µM.

`COc1cc(Nc2ccnc(N3CCN(c4ccnc5cc(Cl)ccc45)CC3)n2)cc(OC)c1`: the GI50 with HCT-116 colon is 0.496 µM; in the test with HL-60(TB) leukemia, 2.58 µM; in the test on MDA-MB-435, 0.209 µM; with NCI-H522 lung, 0.874 µM; in the test with OVCAR-3 ovarian, 2.53 µM; in the test with OVCAR-4 ovarian, 0.477 µM. The GI50 in the test on OVCAR-8 ovarian was 1.97 µM; with UACC-62 melanoma, 0.614 µM. Further, the TGI in the test on HCT-116 colon was 10.3 µM; with HL-60(TB) leukemia it was greater than 100 µM; in the test on MDA-MB-435, 0.626 µM; with NCI-H522 lung it was 4.48 µM; in the test on OVCAR-3 ovarian it was greater than 28.9 µM; in the test with OVCAR-4 ovarian it was greater than 45.1 µM. The values for the TGI in the test with OVCAR-8 ovarian and in the test on UACC-62 melanoma were greater than 23 µM and 3.76 µM, respectively.

In the case of `O=C(CCc1nc(=S)[nH][nH]1)NC12CC3CC(CC(C3)C1)C2`, the TGI with A498 renal, in the test with HCT-116 colon, with HL-60(TB) leukemia, in the test with MALME-3M melanoma, in the test on NCI-H522 lung and with OVCAR-3 ovarian was greater than 100 µM each time. Besides, the TGI with OVCAR-4 ovarian, with OVCAR-8 ovarian and in the test on UACC-62 melanoma was greater than 100 µM each time.

Turning to `C[n+]1cc2c3c(ccc2c2ccc4cc5c(cc4c21)OCO5)OCO3`, the GI50 in the test on A498 renal was 1.54 µM; in the test on HCT-116 colon, 0.227 µM; with HL-60(TB) leukemia, 0.445 µM; with MALME-3M melanoma it was 0.564 µM; in the test with MDA-MB-435 it was 0.317 µM; in the test with NCI-H522 lung, 0.3 µM. In addition, the GI50 is 0.278 µM in the test on OVCAR-3 ovarian, 0.326 µM in the test with OVCAR-8 ovarian and 0.744 µM in the test on UACC-62 melanoma. The TGI in the test on A498 renal is 3.12 µM; with HCT-116 colon, 0.593 µM; with HL-60(TB) leukemia, 2.7 µM; in the test with MALME-3M melanoma, 1.83 µM; in the test on MDA-MB-435, 1.11 µM; in the test on NCI-H522 lung it was 1.41 µM. Moreover, the TGI with OVCAR-3 ovarian is 0.758 µM; in the test on OVCAR-8 ovarian, 1.4 µM; with UACC-62 melanoma it was 2.08 µM.

With `CC(CO)[C@H]1OC(=O)C=C2[C@@]13O[C@@H]3[C@H]1OC(=O)[C@@]3(C)[C@H]4O[C@H]4C[C@@]2(C)[C@@H]13` (stereo partly drawn), the TGI in the test with A498 renal was greater than 29.4 µM; in the test with HCT-116 colon, greater than 28 µM; in the test on MALME-3M melanoma it was 8.46 µM; in the test with MDA-MB-435 it was 18.4 µM; with NCI-H522 lung it was 5.38 µM; in the test on OVCAR-3 ovarian, greater than 30.1 µM. Moreover, the TGI is greater than 24.3 µM in the test on OVCAR-4 ovarian, 9.02 µM in the test on OVCAR-8 ovarian and 7.36 µM in the test on UACC-62 melanoma.

As for `C[C@]12CC[C@@H]3c4ccc(O)c([N+](=O)[O-])c4CC[C@H]3[C@@H]1CC[C@@H]2NS(=O)(=O)c1ccc(C(F)(F)F)cc1`, the GI50 with A498 renal is 1.07 µM; with HCT-116 colon, 1.6 µM; in the test on MALME-3M melanoma it was 1.99 µM; in the test with MDA-MB-435, 1.74 µM; with NCI-H522 lung it was 1.61 µM; in the test on OVCAR-4 ovarian, 2.44 µM. Also, the results for the GI50 in the test with OVCAR-8 ovarian and in the test on UACC-62 melanoma were 2.46 µM and 1.34 µM, respectively. Further, the TGI turned out to be 3.48 µM with A498 renal; 2.99 µM in the test on HCT-116 colon; 5.41 µM in the test on MALME-3M melanoma; 3.63 µM in the test on MDA-MB-435; 3.48 µM in the test on NCI-H522 lung; 8.88 µM in the test with OVCAR-4 ovarian. The TGI in the test with OVCAR-8 ovarian is 8.3 µM; in the test with UACC-62 melanoma, 2.78 µM.

In the case of `CCc1ccccc1NC(=O)C(=O)C(C(=O)c1ccc(OC)cc1)c1ccc(OC)cc1` (stereo not drawn), the TGI with A498 renal, with HCT-116 colon, in the test with HL-60(TB) leukemia, with MALME-3M melanoma, in the test on NCI-H522 lung and in the test with OVCAR-3 ovarian was greater than 100 µM each time. Also, the TGI with OVCAR-4 ovarian, with OVCAR-8 ovarian and with UACC-62 melanoma was greater than 100 µM each time.

As for `COc1cc(C2c3cc4c(cc3[C@@H](Nc3ccc(N(C)C)cc3)[C@H]3COC(=O)C23)OCO4)cc(OC)c1O` (stereo partly drawn), the GI50 was 0.643 µM in the test on A498 renal; 5.52 µM with HCT-116 colon; 1.6 µM in the test on MALME-3M melanoma; 1.18 µM with NCI-H522 lung; 13 µM with OVCAR-4 ovarian; 1.78 µM in the test with OVCAR-8 ovarian. Further, in the test on UACC-62 melanoma, the GI50 was 0.347 µM. In addition, the TGI with A498 renal is 3.42 µM and 10.2 µM; in the test on HCT-116 colon it was 11.7 µM and 20.2 µM; with HL-60(TB) leukemia, 2.51 µM; with MALME-3M melanoma it was 12.1 µM and 15 µM; in the test with NCI-H522 lung it was 2.29 µM and 2.56 µM; with OVCAR-3 ovarian it was 16.9 µM. For the same compound, the TGI was 18.7 µM and 25.8 µM in the test with OVCAR-4 ovarian; 7.97 µM and 24.9 µM in the test with OVCAR-8 ovarian; 1.53 µM and 2.28 µM in the test on UACC-62 melanoma.

Take `CC(=O)c1cccc(N(/C=C/C(=O)C(F)(F)F)CC(=O)c2ccc(Cl)cc2)c1`: the GI50 in the test on A498 renal, in the test on HCT-116 colon, in the test with MALME-3M melanoma, in the test on MDA-MB-435, in the test on NCI-H522 lung and in the test with OVCAR-3 ovarian was greater than 100 µM throughout. The GI50 with OVCAR-4 ovarian, with OVCAR-8 ovarian and in the test with UACC-62 melanoma was greater than 100 µM throughout. In addition, the TGI in the test with A498 renal, in the test on HCT-116 colon, with MALME-3M melanoma, with MDA-MB-435, in the test on NCI-H522 lung and in the test on OVCAR-3 ovarian was greater than 100 µM each time. For the same compound, the TGI in the test with OVCAR-4 ovarian, with OVCAR-8 ovarian and in the test with UACC-62 melanoma was greater than 100 µM in each case.

In the case of `O=c1oc2ccccc2c(O)c1C=NC(=S)c1ccncc1`, the TGI was greater than 100 µM in the test with HCT-116 colon; 35.5 µM with HL-60(TB) leukemia; greater than 100 µM in the test on MDA-MB-435; greater than 100 µM with OVCAR-3 ovarian; greater than 100 µM in the test with OVCAR-4 ovarian; greater than 100 µM in the test on OVCAR-8 ovarian. In the test on UACC-62 melanoma, this compound registered a TGI greater than 100 µM.
